Measurements from patent US10189887B2, “Polypeptides and uses thereof for reducing CD95-mediated cell motility” (INSERM (INSTITUT NATIONAL DE LA SANTÉ ET DE LA RECHERCHE …, priority 2014, dated 2019).

Columns and labels:
MDA-MB-231 = assay: Boyden chamber migration of triple negative breast cancer cells; format: cell-based; conditions: MDA-MB-231 pre-incubated 1 hour with 10 μM; cl-CD95L 100 ng/mL for 24 h
Method: Boyden chambers contained membranes with a pore size of 8 μm (Millipore, Molsheim, France). After hydration of the membranes, breast cancer cells (10^5 cells per chamber) were added to the top chamber in low serum (1%)-containing medium. The bottom chamber was filled with low serum (1%)-containing medium in the presence or absence of cl-CD95L (100 ng/mL). Cells were cultured for 24 h at 37° C. To quantify migration, cells were mechanically removed from the top-side of the membrane using a cotton-tipped swab, and migrating cells from the reverse side were fixed with methanol and stained with Giemsa. For each experiment, five representative pictures were taken for each insert, then cells were lyzed and absorbance at 560 nm correlated to the amount of Giemsa stain was measured.

Th17 cells = assay: Endothelial transmigration of CD4 T-cell subsets (Th17, Th1, Treg), Boyden chamber; format: cell-based, human; conditions: indicated concentrations of peptide, Boyden Chamber assay
Method: Animal experiments were subject to ethical review by the University of Nottingham were appropriate and conducted using PPL 40/3412 in accordance with the UK Home Office guidance and under ASPA (1986). For the generation of murine T-cell subsets, spleens were removed from C57Bl/6 mice and single cell suspensions prepared. CD4^+CD62L^+ naïve cells were isolated using Miltenyi Biotec microbeads. Naïve human CD4^+ T-cells were prepared using the Miltenyi Biotec naïve CD4^+ T-cell isolation kit II, which are sorted produced a 99% pure population of CD4^+CD45RA^+ cells. Purified cells were cultured in complete IMDM media all with α-CD3 (1 μg/ml), α-CD28 (2 μg/ml), and as follows; Th1 cells IL-12 (10 ng/ml) with α-IL-4 (10 μg/ml), Th2 cells IL-4 (10 ng/ml) and α-IFN-γ (10 μg/ml), Th17 cells Il-6 (10 ng/ml), TGF-β1 (2 ng/ml), α-IFN-γ (10 μg/ml) with α-IL-4 (10 μg/ml), and Tregs IL-2 (10 ng/ml) TGF-β1 (5 ng/ml), α-IFN-γ (10 μg/ml) and α-IL-4 (10 μg/ml). Cells were converted to T-cell subsets over five days as outlined above. All cytokines were supplied by PeproTech (London, UK). Mouse CD3 (clone 2C11); human CD3 (UCHT1); mouse CD28 (37.51); human CD28 (CD28.2); mouse IL-4 (11B11); human IL-4 (MP4-25D2); mouse IFN-γ (XMG1.2); human IFN-γ B27 came from BD Pharmigen.
After hydration of the Boyden chamber membranes containing 3 μm pore size membranes (Millipore, Molsheim, France), activated T-lymphocytes (10^6) were added to the top chamber on a confluent monolayer of HUVEC in a low serum (1%)-containing medium. […] In experiments using human sera, 500 μl of serum from either healthy donors or SLE patients was added in the lower reservoir. Cells were cultured for 24 h at 37° C. in a 5% CO2 humidified incubator. Transmigrated cells were counted in the lower reservoir by flow cytometry using a standard of 2.5×10^4 fluorescent beads (Flow-count, Beckman Coulter).
Blocking antibodies were used against E-selectin and ICAM-1 in the CHEMICON® endothelial cell adhesion assay (Millipore). Briefly, after activation of the endothelial cell layer with TNF-α, anti-mouse Ig controls, anti-E-selectin or anti-ICAM-1 were added at final concentrations of 10 μg/ml. Thereafter calcein-AM-stained T-cell subsets were incubated for 24 hours and unbound cells are washed. Cells attached to the endothelium were assessed using fluorescence plate reader.

[1] = test system: Akt serine 473 (PI3K signaling pathway); assay: Akt phosphorylation in PBLs exposed to cl-CD95L; format: cell-based, human; conditions: peptide pre-incubation
Method: Cells were lyzed for 30 minutes at 4° C. in lysis buffer (25 mM HEPES pH 7.4, 1% v/v Triton X-100, 150 mM NaCl, 2 mM EGTA supplemented with a mix of protease inhibitors (Sigma-Aldrich)). Protein concentration was determined by the bicinchoninic acid method (PIERCE, Rockford, Ill., USA) according to the manufacturer's protocol. Proteins were separated on a 12% SDS-PAGE and transferred to a nitrocellulose membrane (GE Healthcare, Buckinghamshire, England). The membrane was blocked 15 minutes with TBST (50 mM Tris, 160 mM NaCl, 0.05% v/v Tween 20, pH 7.8) containing 5% w/v dried skimmed milk (TBSTM). Primary antibody was incubated overnight at 4° C. in TBSTM. The membrane was intensively washed (TBST) and then the peroxydase-labeled anti-rabbit or anti-mouse (SouthernBiotech, Birmingham, Ala., US) was added for 45 minutes. The proteins were visualized with the enhanced chemiluminescence substrate kit (ECL, GE Healthcare).

Th17 cell accumulation = assay: In vivo administration of cl-CD95L: cell accumulation in peritoneal cavity and spleen; set-up: species or system C57BL/6 mice; conditions: 24 hours later
Method: Female C57BL/6 mice (Harlan UK) aged between 8-10 weeks were placed in groups of 6 and administered IP. Twenty-four hours following injection, mice were sacrificed and periteonial cavities were washed with 5 ml of PBS/2% FCS, blood smears were prepared, and spleens were collected. Blood smears and cytospins of periteonal cells (PECs) were stained with Giemsa and differential counts performed. Single cell suspensions of spleens and PECs were prepared, cell counts performed, CD4+CD62− T-cells were isolated with Miltenyi microbeads and number of cells determined by trypan blue exclusion. For experiments where animals received TAT-mCID or control peptides, 800 μg (40 mg/kg) was injected IP 2 hrs prior to administration of cl-CD95L. All mouse experiments were performed under ethical approval from the University of Nottingham local animal ethics committee and adhering to UK Home Office guidelines under the Project License 40/3412.
Single cell suspensions of spleens and PECs were prepared as described above. RNA was extracted from CD4 T-cells using phenol/chloroform. cDNA was prepared using the Promega GO-Script Reverse Transcription Kit and used in Real-Time PCR. Briefly, cDNA samples were subject to Taqman assay performed on a Roche Lightcycler. Results are reported as expression levels were calculated using the Δct method relative to HPRT.

Substance: TAT-CID: cell penetrating peptide linking the 36-amino acid-stretch of CID (CD95 residues 175 to 210) to the HIV-TAT sequence; SEQ ID NO: 6 (RKKRRQRRRKRKEVQKTCRKHRKENQGSHESPTLNPETVAINLSD; TAT-CID)
- cell migration (Boyden chamber assay) (MDA-MB-231): inhibits migration
- CD95-mediated endothelial transmigration of Th17 cells (Th17 cells): inhibited the CD95-mediated endothelial transmigration of human Th17 cells in a dose-dependent manner
- Akt phosphorylation at serine 473 [1]: inhibited Akt phosphorylation at its serine 473
- total cell counts from the PEC (accumulation of T lymphocytes) (Th17 cell accumulation; 40 mg/kg two hours prior to IP cl-CD95L (200 ng)): abolished the CD95-mediated accumulation of T lymphocytes
- IL17 production in the peritoneal cavity (Th17 cell accumulation; 40 mg/kg two hours prior to IP cl-CD95L (200 ng), ELISA): prevented
- levels of IFN-γ versus control peptide (Th17 cell accumulation; 40 mg/kg two hours prior to IP cl-CD95L): no differences were noted
